Measurements from patent US20250236611A1, “PYRAZOLE COMPOUNDS AND USES THEREOF” (ALCON INC., priority 2021, published 2025).

Assays:
Type in all cases: biochemical
Details in all cases: 10 nM JAK enzyme, 800 nM Abl peptide, room temperature 75 min
JAK2 = JAK2 (Homo sapiens, UniProt O60674); experiment: JAK assay (KINASE-GLO luminescent kinase assay), JAK2
Experimental: (§1) All compounds were initially prepared as 10 mM stocks in anhydrous dimethylsulfoxide (DMSO). A 20 μL aliquot of the 10 mM solutions was transferred to individual wells in column 1 of a 96-well polypropylene microtiter plate (Corning #3363) and diluted with DMSO to give a final compound concentration of 4 mM. Test compounds were then serially diluted 1:5 in DMSO for an 11-point concentration response and further diluted in the assay buffer bringing all compound concentrations to a final range of 100 μM to 10 pM in 2.5% DMSO. The assay was performed in white 96-well, flat-bottom, half-area, non-binding assay plate (Corning #3642) in assay buffer consisting of 20 mM HEPES (pH 7.5), 10 mM MgCl2*6H2O, 100 μM sodium orthovanadate, 0.05% CHAPS and 0.1% bovine serum albumin. A 10 μL aliquot of compound from each well of the intermediate dilution plate and 20 μL of a 2×JAK substrate/enzyme solution containing acceptor substrate (800 nM Abl peptide), JAK enzyme (10 nM JAK1, JAK2, JAK3, or TYK2), and 1,4-Dithiothreitol (DTT, 2 μM) were added to all wells. The reaction was initiated by the addition of 10 μL of 4× stock solution ATP (2 μM). Reactions were thoroughly mixed manually, covered and allowed to incubate at room temperature for 75 min. Protein kinase activity was quantitated using Promega's KINASE-GLO™ luminescent Kinase Assay Kit according to the manufacturer's directions. ATP concentrations remaining in Test wells following the termination of the enzymatic reaction were compared against control wells containing equivalent amounts of DMSO containing no inhibitor (CTRL). […] Percent of Control (POC) values were determined for each concentration of compound tested according to the equation:
(§2) [formula] • IC50 values were calculated using the following 4-parameter logistic curve-fitting algorithm:
(§3) [formula] • IC50 values were converted to Ki values using the Cheng-Prusoff Equation: […]

JAK1 = JAK1 (Homo sapiens, UniProt P23458); experiment: JAK assay (KINASE-GLO luminescent kinase assay), JAK1
Experimental: as §1, §2, §3

TYK2 = TYK2 (Homo sapiens, UniProt P29597); experiment: JAK assay (KINASE-GLO luminescent kinase assay), TYK2
Experimental: as §1, with “A 20 μL aliquot of the 10 mM solutions was transferred to individual wells in column 1 of a 96-well polypropylene microtiter plate (Corning #3363) and diluted with DMSO to give a final compound concentration of 4 mM.” left out
as §2, §3

JAK3 = target: T1, JAK3 (Homo sapiens, UniProt P52333); experiment: JAK assay (KINASE-GLO luminescent kinase assay), JAK3
T1 sequence (P52333 1-1124): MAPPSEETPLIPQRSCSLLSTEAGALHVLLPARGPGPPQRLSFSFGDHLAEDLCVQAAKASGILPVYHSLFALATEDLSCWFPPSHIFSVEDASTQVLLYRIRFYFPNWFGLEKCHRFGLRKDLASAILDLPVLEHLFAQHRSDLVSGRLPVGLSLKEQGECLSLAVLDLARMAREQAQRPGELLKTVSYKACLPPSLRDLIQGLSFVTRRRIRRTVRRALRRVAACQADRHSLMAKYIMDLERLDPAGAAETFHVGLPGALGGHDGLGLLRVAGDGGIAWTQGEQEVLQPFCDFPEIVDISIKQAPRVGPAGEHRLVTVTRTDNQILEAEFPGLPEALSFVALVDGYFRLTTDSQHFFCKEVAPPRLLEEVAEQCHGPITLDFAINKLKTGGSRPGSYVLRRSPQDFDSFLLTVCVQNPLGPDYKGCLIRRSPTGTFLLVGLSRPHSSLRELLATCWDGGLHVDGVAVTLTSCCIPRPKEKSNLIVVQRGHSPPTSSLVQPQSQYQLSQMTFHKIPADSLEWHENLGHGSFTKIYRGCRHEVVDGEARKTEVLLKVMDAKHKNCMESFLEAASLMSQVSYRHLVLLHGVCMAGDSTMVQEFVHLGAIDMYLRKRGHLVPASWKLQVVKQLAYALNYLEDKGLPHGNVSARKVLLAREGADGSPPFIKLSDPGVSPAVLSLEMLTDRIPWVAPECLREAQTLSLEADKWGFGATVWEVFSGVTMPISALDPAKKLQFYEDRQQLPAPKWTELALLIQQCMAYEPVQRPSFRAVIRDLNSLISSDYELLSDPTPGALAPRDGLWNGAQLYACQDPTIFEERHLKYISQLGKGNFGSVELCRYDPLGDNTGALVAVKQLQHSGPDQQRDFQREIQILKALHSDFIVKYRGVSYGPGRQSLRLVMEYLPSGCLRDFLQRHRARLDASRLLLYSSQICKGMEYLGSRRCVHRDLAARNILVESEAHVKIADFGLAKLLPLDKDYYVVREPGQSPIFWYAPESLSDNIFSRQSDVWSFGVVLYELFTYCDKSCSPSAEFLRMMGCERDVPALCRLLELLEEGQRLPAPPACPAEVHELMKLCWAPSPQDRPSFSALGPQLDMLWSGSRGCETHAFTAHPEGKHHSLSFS
Experimental: as §1, §2, §3

Chain of TYK2 (P29597 whole entry): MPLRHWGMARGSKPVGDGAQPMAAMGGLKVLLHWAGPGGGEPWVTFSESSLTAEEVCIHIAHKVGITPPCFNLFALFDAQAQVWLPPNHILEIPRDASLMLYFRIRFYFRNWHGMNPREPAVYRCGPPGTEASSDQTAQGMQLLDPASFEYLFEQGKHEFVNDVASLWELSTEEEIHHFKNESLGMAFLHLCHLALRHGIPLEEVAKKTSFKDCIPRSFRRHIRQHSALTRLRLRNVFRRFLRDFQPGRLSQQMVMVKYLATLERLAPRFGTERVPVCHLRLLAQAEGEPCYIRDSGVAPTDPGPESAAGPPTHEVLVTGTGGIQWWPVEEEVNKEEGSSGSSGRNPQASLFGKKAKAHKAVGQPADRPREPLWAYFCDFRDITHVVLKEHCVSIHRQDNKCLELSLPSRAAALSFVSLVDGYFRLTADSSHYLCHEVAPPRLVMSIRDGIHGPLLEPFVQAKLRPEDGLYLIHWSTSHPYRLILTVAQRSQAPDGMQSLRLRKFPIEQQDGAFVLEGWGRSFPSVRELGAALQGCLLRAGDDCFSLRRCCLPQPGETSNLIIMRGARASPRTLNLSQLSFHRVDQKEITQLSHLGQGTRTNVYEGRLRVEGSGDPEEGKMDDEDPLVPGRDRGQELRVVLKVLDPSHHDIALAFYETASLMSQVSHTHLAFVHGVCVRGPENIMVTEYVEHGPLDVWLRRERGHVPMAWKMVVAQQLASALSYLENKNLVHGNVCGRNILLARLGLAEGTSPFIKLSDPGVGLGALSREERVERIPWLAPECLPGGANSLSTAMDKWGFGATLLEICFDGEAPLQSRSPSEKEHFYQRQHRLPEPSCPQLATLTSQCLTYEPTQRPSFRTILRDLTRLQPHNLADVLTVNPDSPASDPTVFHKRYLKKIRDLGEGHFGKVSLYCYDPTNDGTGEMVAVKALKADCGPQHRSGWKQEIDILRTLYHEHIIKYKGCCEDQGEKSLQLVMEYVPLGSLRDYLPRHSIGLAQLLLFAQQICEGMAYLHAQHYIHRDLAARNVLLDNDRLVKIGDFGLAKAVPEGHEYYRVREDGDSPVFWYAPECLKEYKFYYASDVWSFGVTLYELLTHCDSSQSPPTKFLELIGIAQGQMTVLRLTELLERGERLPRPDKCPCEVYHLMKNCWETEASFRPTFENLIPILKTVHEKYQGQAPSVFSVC
Chain of JAK1 (P23458 whole entry): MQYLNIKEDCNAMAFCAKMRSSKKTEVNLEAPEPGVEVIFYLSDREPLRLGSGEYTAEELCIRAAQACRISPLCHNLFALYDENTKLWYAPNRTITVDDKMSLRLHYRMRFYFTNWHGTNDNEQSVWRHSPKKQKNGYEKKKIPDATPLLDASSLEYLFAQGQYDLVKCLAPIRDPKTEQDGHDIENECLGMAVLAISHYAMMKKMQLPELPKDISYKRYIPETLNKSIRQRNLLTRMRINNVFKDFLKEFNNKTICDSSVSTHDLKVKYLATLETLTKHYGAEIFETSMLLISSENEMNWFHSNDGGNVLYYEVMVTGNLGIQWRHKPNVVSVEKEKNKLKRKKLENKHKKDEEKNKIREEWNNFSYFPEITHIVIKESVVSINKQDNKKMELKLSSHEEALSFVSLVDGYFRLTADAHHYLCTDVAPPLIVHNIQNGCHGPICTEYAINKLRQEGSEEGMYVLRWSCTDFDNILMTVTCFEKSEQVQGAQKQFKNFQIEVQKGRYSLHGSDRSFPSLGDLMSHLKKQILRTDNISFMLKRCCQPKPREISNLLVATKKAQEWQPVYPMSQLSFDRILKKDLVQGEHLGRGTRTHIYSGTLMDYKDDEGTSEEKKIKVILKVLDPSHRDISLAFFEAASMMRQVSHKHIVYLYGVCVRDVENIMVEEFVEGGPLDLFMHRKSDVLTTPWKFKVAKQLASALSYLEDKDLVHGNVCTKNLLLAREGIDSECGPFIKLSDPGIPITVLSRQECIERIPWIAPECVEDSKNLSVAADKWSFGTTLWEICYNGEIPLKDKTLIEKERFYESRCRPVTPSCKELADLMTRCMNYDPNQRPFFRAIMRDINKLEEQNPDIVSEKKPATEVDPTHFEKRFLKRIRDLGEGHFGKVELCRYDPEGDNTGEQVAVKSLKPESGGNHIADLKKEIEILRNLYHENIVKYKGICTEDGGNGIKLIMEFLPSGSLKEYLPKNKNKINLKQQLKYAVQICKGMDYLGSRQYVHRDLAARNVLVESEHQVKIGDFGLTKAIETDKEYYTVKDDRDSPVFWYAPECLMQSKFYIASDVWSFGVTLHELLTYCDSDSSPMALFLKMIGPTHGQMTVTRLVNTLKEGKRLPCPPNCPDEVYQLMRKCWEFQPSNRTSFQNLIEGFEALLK
Chain of JAK2 (O60674 whole entry): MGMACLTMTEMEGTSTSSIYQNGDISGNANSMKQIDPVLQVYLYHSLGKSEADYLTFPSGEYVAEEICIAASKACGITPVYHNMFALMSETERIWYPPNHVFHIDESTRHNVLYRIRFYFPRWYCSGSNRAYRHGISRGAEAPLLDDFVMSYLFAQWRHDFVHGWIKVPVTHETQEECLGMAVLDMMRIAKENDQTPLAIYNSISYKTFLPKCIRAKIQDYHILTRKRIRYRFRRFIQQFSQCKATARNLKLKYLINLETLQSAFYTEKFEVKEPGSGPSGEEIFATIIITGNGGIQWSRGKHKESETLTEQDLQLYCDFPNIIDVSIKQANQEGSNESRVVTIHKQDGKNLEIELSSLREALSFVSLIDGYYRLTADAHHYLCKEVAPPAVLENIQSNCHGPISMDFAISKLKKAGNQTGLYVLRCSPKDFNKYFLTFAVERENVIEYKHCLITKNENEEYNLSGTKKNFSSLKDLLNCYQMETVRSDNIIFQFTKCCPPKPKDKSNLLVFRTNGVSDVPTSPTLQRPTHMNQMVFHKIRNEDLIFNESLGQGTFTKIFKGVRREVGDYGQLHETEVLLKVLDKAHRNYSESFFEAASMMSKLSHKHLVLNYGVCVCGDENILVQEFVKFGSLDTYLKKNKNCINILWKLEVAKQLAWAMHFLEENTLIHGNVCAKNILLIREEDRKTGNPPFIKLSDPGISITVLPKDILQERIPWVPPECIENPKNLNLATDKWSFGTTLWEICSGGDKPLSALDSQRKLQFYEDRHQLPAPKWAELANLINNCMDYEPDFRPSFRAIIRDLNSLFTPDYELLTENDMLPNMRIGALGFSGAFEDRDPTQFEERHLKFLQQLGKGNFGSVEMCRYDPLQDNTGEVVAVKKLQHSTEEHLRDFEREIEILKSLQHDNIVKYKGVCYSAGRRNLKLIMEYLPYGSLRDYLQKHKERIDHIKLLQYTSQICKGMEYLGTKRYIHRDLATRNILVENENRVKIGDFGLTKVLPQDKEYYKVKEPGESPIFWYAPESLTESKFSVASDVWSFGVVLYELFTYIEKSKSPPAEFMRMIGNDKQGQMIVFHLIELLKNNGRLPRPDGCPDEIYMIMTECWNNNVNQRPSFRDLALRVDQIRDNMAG

| SMILES | IC50 (JAK2) | IC50 (JAK1) | IC50 (TYK2) | IC50 (JAK3) |
| --- | --- | --- | --- | --- |
| Cc1cnc(Nc2ccc(OCCN(C)C)cc2)nc1-c1cnn(CC2(CF)CC2)c1 [(C)CCOC1═CC═C(NC2═NC] | < 10 nM | < 100 nM | < 100 nM | < 100 nM |
| Cc1cnc(Nc2ccc(N3CCOCC3)cc2)nc1-c1cnn(CC2(C#N)CC2)c1 [C(C1═C(N═C(NC2═CC═C(C═C2)N3CCOCC3)] | < 10 nM | < 100 nM | < 10 nM | < 10 nM |
| Cc1cnc(NC2CCOCC2)nc1-c1cnn(CCC#N)c1 [CC1═C(N═C(NC2CCOCC2)N═C1)C3═C[N]] | < 100000 nM | < 100000 nM | > 50000 nM | > 50000 nM |
| Cc1cnc(Nc2cccc3c2CNC3=O)nc1-c1cnn(CC2(Cl)CC2)c1 [CC1═C(N═C(NC2═C3CNC] | < 100 nM | < 100000 nM | < 100000 nM | < 1000 nM |
| Cc1cnc(Nc2ccc(N3CC4(COC4)C3)cc2)nc1-c1cnn(CC2(CF)CC2)c1 [CC1═C(N═C(NC2═CC(═C(C═C2)N3CC4] | < 10 nM | < 100 nM | < 10 nM | < 10 nM |
| Cc1cnc(Nc2cccc(CCO)c2)nc1-c1cnn(CC2(CF)CC2)c1 [CC1═C(N═C(NC2═CC(═CC═C2)CCO)N═C1)C3═C[N]] | < 10 nM | < 10 nM | < 10 nM | < 10 nM |
| Cc1cnc(Nc2cccc(C(N)=O)c2)nc1-c1cnn(CC2(CF)CC2)c1 [CC1═C(N═C(NC2═CC(═CC═C2)C] | < 10 nM | < 100 nM | < 10 nM | < 100 nM |
| Cc1cnc(Nc2cc(CO)ns2)nc1-c1cnn(CC2(CF)CC2)c1 [CC1═C(N═C(NC2═CC(═NS2)CO)N═C1)C3═C[N]] | < 10 nM | < 10 nM | < 10 nM | < 10 nM |
| Cc1cnc(Nc2cc(COC(=O)CCN3CCOCC3)ns2)nc1-c1cnn(CC2(CF)CC2)c1 [CC1═C(N═C(NC2═CC(═NS2)COC] | < 10 nM | < 100 nM | < 10 nM | < 10 nM |
| Cc1cnc(Nc2cc(C(=O)O)ns2)nc1-c1cnn(CC2(CF)CC2)c1 [CC1═C(N═C(NC2═CC(═NS2)C] | < 10 nM | < 100 nM | < 100 nM | < 100 nM |
| Cc1cnc(Nc2ccc(S(C)(=O)=O)c(F)c2)nc1-c1cnn(CC2(Cl)CC2)c1 [CC1═C(N═C(NC2═CC═C(C(═C2)F)[S]] | < 10 nM | < 100 nM | < 10 nM | < 100 nM |
| Cc1cnc(Nc2ccc(CN3CCOCC3)cc2)nc1 [CC1═C(N═C(NC2═CC═C(CN3CCOCC3)C═C2)N═C1)] | < 10 nM | < 100 nM | < 100 nM | < 10 nM |
| Cc1cnc(Nc2ccc(CNC(=O)OC(C)(C)C)cc2)nc1-c1cnn(CC2(CF)CC2)c1 [CC1═C(N═C(NC2═CC═C(CNC(═O)OC] | < 10 nM | < 100 nM | < 100 nM | < 100 nM |
| Cc1cnc(Nc2ccc(CO)c(CO)c2)nc1-c1cnn(CC2(CF)CC2)c1 [CC1═C(N═C(NC2═CC═C(CO)C] | < 10 nM | < 100 nM | < 10 nM | < 100 nM |
